From the supplement of paper PMC10307832

How the values were obtained:
Assay in all cases: relative viability (nuclei count vs DMSO), 5 days (fraction); higher = more cells survive
[1] = system: HARA
Outline: (§1)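 Lung cancer cell lines were seeded in 1536-well plates and dosed by pin tool the next day, with either a single drug or a fixed anchor-drug dose combined with five library-drug doses (not always all listed) spaced in √10 steps. Five days later, one step fixed the cells and stained their nuclei (final 0.05% Triton X-100, 1% formaldehyde, 1 ug/ml Hoechst), and nuclei were counted on 4× images. Relative viability is the nuclei count in treated wells divided by the count in vehicle wells, and each value is the median of duplicate plates.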

[2] = system: NCI-H2126
Outline: as §1

[3] = system: LCLC-97TM1
Outline: as §1

[4] = system: HCC-827
Outline: as §1

[5] = system: NCI-H1792
Outline: as §1

[6] = system: NCI-H661
Outline: as §1

[7] = system: NCI-H1944
Outline: as §1

[8] = system: NCI-H23
Outline: as §1

[9] = system: SK-LU-1
Outline: as §1

[10] = system: LC-2-ad
Outline: as §1

[11] = system: EMC-BAC-2
Outline: as §1

[12] = system: NCI-H1437
Outline: as §1

[13] = system: EKVX
Outline: as §1

[14] = system: ChaGo-K-1
Outline: as §1

[15] = system: NCI-H1915
Outline: as §1

[16] = system: NCI-H460
Outline: as §1

[17] = system: LU99A
Outline: as §1

[18] = system: HCC-15
Outline: as §1

[19] = system: NCI-H322M
Outline: as §1

[20] = system: NCI-H441
Outline: as §1

[21] = system: PC-3 [JPC-3]
Outline: as §1

[22] = system: H3255
Outline: as §1

[23] = system: NCI-H1793
Outline: as §1

Question: What does the source list for `O=C(O)CCCCC(CCSCc1ccccc1)SCc1ccccc1` (configuration not stated) [CPI-613] + N=C(N)NC(=N)NCCc1ccccc1 [Phenformin] (partner 250 µM)?
Answer: relative viability ([1]; first compound 15.81 µM): 0.394; relative viability ([1]; first compound 50 µM): 0.444; relative viability ([1]; first compound 158.11 µM): 0.267; relative viability ([1]; first compound 500 µM): 0.0155; relative viability ([2]; first compound 5 µM): 0.535; relative viability ([2]; first compound 15.81 µM): 0.524; relative viability ([2]; first compound 50 µM): 0.585; relative viability ([2]; first compound 158.11 µM): 0.368; relative viability ([2]; first compound 500 µM): 0.0437; relative viability ([3]; first compound 5 µM): 0.446; relative viability ([3]; first compound 15.81 µM): 0.325; relative viability ([3]; first compound 50 µM): 0.405; relative viability ([3]; first compound 158.11 µM): 0.371; relative viability ([3]; first compound 500 µM): 0.0437; relative viability ([4]; first compound 5 µM): 0.361; relative viability ([4]; first compound 15.81 µM): 0.374; relative viability ([4]; first compound 50 µM): 0.41; relative viability ([4]; first compound 158.11 µM): 0.318; relative viability ([4]; first compound 500 µM): 0.185; relative viability ([5]; first compound 5 µM): 0.332; relative viability ([5]; first compound 50 µM): 0.236; relative viability ([5]; first compound 158.11 µM): 0.205; relative viability ([5]; first compound 500 µM): 0.0809; relative viability ([6]; first compound 5 µM): 0.291; relative viability ([6]; first compound 15.81 µM): 0.235; relative viability ([6]; first compound 50 µM): 0.304; relative viability ([6]; first compound 158.11 µM): 0.214; relative viability ([6]; first compound 500 µM): 0.113; relative viability ([7]; first compound 5 µM): 0.194; relative viability ([7]; first compound 15.81 µM): 0.185; relative viability ([7]; first compound 50 µM): 0.187; relative viability ([7]; first compound 158.11 µM): 0.14; relative viability ([7]; first compound 500 µM): 0.0441; relative viability ([8]; first compound 5 µM): 0.819; relative viability ([8]; first compound 15.81 µM): 0.746; relative viability ([8]; first compound 50 µM): 0.803; relative viability ([8]; first compound 158.11 µM): 0.358; relative viability ([8]; first compound 500 µM): 0.0072; relative viability ([9]; first compound 5 µM): 0.547; relative viability ([9]; first compound 15.81 µM): 0.479; relative viability ([9]; first compound 50 µM): 0.642; relative viability ([9]; first compound 158.11 µM): 0.248; relative viability ([9]; first compound 500 µM): 0.0581; relative viability ([10]; first compound 5 µM): 0.569; relative viability ([10]; first compound 15.81 µM): 0.558; relative viability ([10]; first compound 50 µM): 0.567; relative viability ([10]; first compound 158.11 µM): 0.396; relative viability ([10]; first compound 500 µM): 0.0712; relative viability ([11]; first compound 5 µM): 0.531; relative viability ([11]; first compound 15.81 µM): 0.517; relative viability ([11]; first compound 50 µM): 0.502; relative viability ([11]; first compound 158.11 µM): 0.226; relative viability ([11]; first compound 500 µM): 0.0232; relative viability ([12]; first compound 5 µM): 0.237; relative viability ([12]; first compound 15.81 µM): 0.282; relative viability ([12]; first compound 50 µM): 0.287; relative viability ([12]; first compound 158.11 µM): 0.119; relative viability ([12]; first compound 500 µM): 0.0327; relative viability ([13]; first compound 5 µM): 0.247; relative viability ([13]; first compound 15.81 µM): 0.223; relative viability ([13]; first compound 50 µM): 0.212; relative viability ([13]; first compound 158.11 µM): 0.164; relative viability ([13]; first compound 500 µM): 0.213; relative viability ([14]; first compound 5 µM): 0.47; relative viability ([14]; first compound 15.81 µM): 0.454; relative viability ([14]; first compound 50 µM): 0.491; relative viability ([14]; first compound 158.11 µM): 0.331; relative viability ([14]; first compound 500 µM): 0.124; relative viability ([15]; first compound 5 µM): 0.374; relative viability ([15]; first compound 15.81 µM): 0.372; relative viability ([15]; first compound 50 µM): 0.354; relative viability ([15]; first compound 158.11 µM): 0.339; relative viability ([15]; first compound 500 µM): 0.0398; relative viability ([16]; first compound 5 µM): 0.521; relative viability ([16]; first compound 15.81 µM): 0.449; relative viability ([16]; first compound 50 µM): 0.434; relative viability ([16]; first compound 158.11 µM): 0.115; relative viability ([16]; first compound 500 µM): 0.0156; relative viability ([17]; first compound 5 µM): 0.801; relative viability ([17]; first compound 15.81 µM): 0.793; relative viability ([17]; first compound 50 µM): 0.823; relative viability ([17]; first compound 158.11 µM): 0.733; relative viability ([17]; first compound 500 µM): 0.0986; relative viability ([18]; first compound 5 µM): 0.435; relative viability ([18]; first compound 15.81 µM): 0.439; relative viability ([18]; first compound 50 µM): 0.414; relative viability ([18]; first compound 158.11 µM): 0.178; relative viability ([18]; first compound 500 µM): 0.0244; relative viability ([19]; first compound 5 µM): 0.76; relative viability ([19]; first compound 15.81 µM): 0.718; relative viability ([19]; first compound 50 µM): 0.728; relative viability ([19]; first compound 158.11 µM): 0.693; relative viability ([19]; first compound 500 µM): 0.0264; relative viability ([20]; first compound 5 µM): 0.885; relative viability ([20]; first compound 15.81 µM): 0.734; relative viability ([20]; first compound 50 µM): 0.79; relative viability ([20]; first compound 158.11 µM): 0.284; relative viability ([20]; first compound 500 µM): 0.0276; relative viability ([21]; first compound 5 µM): 0.474; relative viability ([21]; first compound 15.81 µM): 0.495; relative viability ([21]; first compound 50 µM): 0.494; relative viability ([21]; first compound 158.11 µM): 0.465; relative viability ([21]; first compound 500 µM): 0.0769; relative viability ([22]; first compound 5 µM): 0.351; relative viability ([22]; first compound 15.81 µM): 0.299; relative viability ([22]; first compound 50 µM): 0.399; relative viability ([22]; first compound 500 µM): 0.299; relative viability ([23]; first compound 5 µM): 0.314; relative viability ([23]; first compound 15.81 µM): 0.319; relative viability ([23]; first compound 50 µM): 0.45; relative viability ([23]; first compound 158.11 µM): 0.194; relative viability ([23]; first compound 500 µM): 0.0229
